Starred links: 1 amine or outer side, 2 acyl side, 3 side chain; linkers in the order of their positions; H or OH if unused. Positions of bridges follow the written chain, without caps; N, C: chain ends. Non-standard residues stand in square brackets, D forms with d. Residues, ends and D or L forms follow the SMILES beside them. ξ: configuration not given here. *: point of attachment. Ala(9-anthryl) = N[C@@H](Cc1c2ccccc2cc2ccccc12)C(=O)O; DAMPA = CN(Cc1cnc2nc(N)nc(N)c2n1)c1ccc(C(=O)*)cc1; Phe(F5) = N[C@@H](Cc1c(F)c(F)c(F)c(F)c1F)C(=O)O; Pro(4R-Bn) = O=C(O)[C@@H]1C[C@@H](Cc2ccccc2)CN1; Bip = N[C@@H](Cc1ccc(-c2ccccc2)cc1)C(=O)O; Dip = N[C@H](C(=O)O)C(c1ccccc1)c1ccccc1; γGlu = O=C(O)[C@H](CCC(=O)[*:2])N[*:1]; 1Nal = N[C@@H](Cc1cccc2ccccc12)C(=O)O; 2Nal = N[C@@H](Cc1ccc2ccccc2c1)C(=O)O; oXylylene = c1ccc(C[*:2])c(C[*:1])c1; NMePhg = CN[C@H](C(=O)O)c1ccccc1; Tic = O=C(O)[C@@H]1Cc2ccccc2CN1; Cha = N[C@@H](CC1CCCCC1)C(=O)O; Cysteamide = C(CS[*:3])N[*:1]; Chg = N[C@H](C(=O)O)C1CCCCC1; Phg = N[C@H](C(=O)O)c1ccccc1; Tle = CC(C)(C)[C@H](N)C(=O)O; Nicotinoyl = O=C(c1cccnc1)*; ξDisc = O=C(O)C1NCc2ccccc21; NMeA = CN[C@@H](C)C(=O)O; Ahx = NCCCCCC(=O)O
Tests used:
[1] = system: MCF-7 breast cancer cell line; experiment: Cell viability, MCF-7, PrestoBlue assay; format: cell-based; conditions: NA = not active
Experimental: To test our theory we decided to focus on Smac multimers. First, we synthesized a small library of Smac compounds (see, Tables 3 and 4) varying in position 4 substituents having general structure N-MeAla-Tle-4-(trans-Bn)-Pro-Xaa-NHCH2CH2—SH (SEQ ID NO:38), which were tested in vitro using MDA-MB-231 and MCF-7 breast cancer cell lines and PrestoBlue™ assay (Invitrogen).

[2] = system: MDA-MB-231 breast cancer cell line
[3] = system: HCT116 colorectal cancer cells

| Structure (SMILES) | EC50 [1] [µM] | EC50 [2] [µM] | EC50 [3] [µM] |
| --- | --- | --- | --- |
| CN[C@@H](C)C(=O)N[C@H](C(=O)N1C[C@H](Cc2ccccc2)C[C@H]1C(=O)N[C@@H](Cc1cccc2ccccc12)C(=O)NCCSCc1cc(CSCCNC(=O)[C@H](Cc2cccc3ccccc23)NC(=O)[C@@H]2C[C@@H](Cc3ccccc3)CN2C(=O)[C@@H](NC(=O)[C@H](C)NC)C(C)(C)C)cc(CSCCNC(=O)[C@H](Cc2cccc3ccccc23)NC(=O)[C@@H]2C[C@@H](Cc3ccccc3)CN2C(=O)[C@@H](NC(=O)[C@H](C)NC)C(C)(C)C)c1)C(C)(C)C [SMAC14-3X, (N^MeAla-Tle-(4-Bzl)Pro-^1Nal-NHCH2CH2S)3—(CH2)3Ph] | 120 ± 8.4 | 7.2 ± 1.5 |  |
| CN[C@@H](C)C(=O)N[C@H](C(=O)N1C[C@H](Cc2ccccc2)C[C@H]1C(=O)N1Cc2ccccc2C[C@H]1C(=O)NCCS)C(C)(C)C [SMAC11, N^MeAla-Tle-(4-Bzl)Pro-Tic-NHCH2CH2SH] (H-[NMeA][Tle][Pro(4R-Bn)][Tic]-Cysteamide; N-terminus assumed) | 5.3 ± 0.6 | 13.3 ± 1.3 |  |
| CN[C@@H](C)C(=O)N[C@H](C(=O)N1C[C@H](Cc2ccccc2)C[C@H]1C(=O)NC[C@H]1CC[C@H](C(=O)NCCS)CC1)C(C)(C)C [SMAC7, N^MeAla-Tle-(4-Bzl)Pro-Amc-NHCH2CH2SH] | 86.3 ± 10.5 | 91.8 ± 16.3 |  |
| CN[C@@H](C)C(=O)N[C@H](C(=O)N1C[C@H](Cc2ccccc2)C[C@H]1C(=O)N1c2ccccc2C[C@H]1C(=O)NCCS)C(C)(C)C [SMAC5, N^MeAla-Tle-(4-Bzl)Pro-Idc-NHCH2CH2SH] | 477 ± 48.4 | 68.3 ± 4 |  |
| CN[C@@H](C)C(=O)N[C@H](C(=O)N1C[C@H](Cc2ccccc2)C[C@H]1C(=O)NCc1ccc(CC(=O)NCCS)cc1)C(C)(C)C [SMAC3, N^MeAla-Tle-(4-Bzl)Pro-Amp-NHCH2CH2SH] |  | 14.3 ± 3.2 |  |
| CN(Cc1cnc2nc(N)nc(N)c2n1)c1ccc(C(=O)N[C@@H](CCC(=O)NCCCCCC(=O)N[C@H](CCCNC(=N)N)C(=O)N[C@@H](CCCNC(=N)N)C(=O)N[C@@H](Cc2c(F)c(F)c(F)c(F)c2F)C(=O)N[C@@H](CCCNC(=N)N)C(=O)N[C@@H]2CSCc3ccccc3CSC[C@@H](C(=O)N[C@H](CCCNC(=N)N)C(=O)N[C@@H](CC3CCCCC3)C(=O)N[C@@H](CCCNC(=N)N)C(=O)N3Cc4ccccc4C3C(N)=O)NC(=O)[C@H](Cc3cccc4ccccc34)NC(=O)[C@H](Cc3ccc(O)cc3)NC2=O)C(=O)O)cc1 (stereo partly drawn) [ArB14Co-MTX, MTX-Ahx-Arg-Arg-PhF-Arg-Cys-Tyr-Na1-Cys-Arg-Cha-Arg-DISC] ({DAMPA-γGlu-Ahx}-[dR]R[Phe(F5)]R[dC]Y[1Nal]C[dR][Cha]R[ξDisc]-NH2; linker 5-8 via oXylylene) |  |  | 6.9 ± 0.4 |
| CN[C@@H](C)C(=O)N[C@H](C(=O)N1C[C@H](Cc2ccccc2)C[C@H]1C(=O)N[C@H](C(=O)NCCS)C1CCCCC1)C(C)(C)C [SMAC6, N^MeAla-Tle-(4-Bzl)Pro-Chg-NHCH2CH2SH] (H-[NMeA][Tle][Pro(4R-Bn)][Chg]-Cysteamide; N-terminus assumed) | 31.2 ± 2.1 | 9.8 ± 3.1 |  |
| N=C(N)NCCC[C@@H](N)C(=O)N[C@@H](CCCNC(=N)N)C(=O)N[C@@H](Cc1ccc2ccccc2c1)C(=O)N[C@@H](CCCNC(=N)N)C(=O)N[C@@H]1CSCc2ccccc2CSC[C@@H](C(=O)N[C@H](CCCNC(=N)N)C(=O)N[C@@H](CC2CCCCC2)C(=O)N[C@@H](CCCNC(=N)N)C(=O)N2Cc3ccccc3C2C(N)=O)NC(=O)[C@H](Cc2cccc3ccccc23)NC(=O)[C@H](Cc2ccc(O)cc2)NC1=O (stereo partly drawn) [ArB14Bo, Arg-Arg-Na2-Arg-Cys-Tyr-Na1-Cys-Arg-Cha-Arg-DISC] (H-[dR]R[2Nal]R[dC]Y[1Nal]C[dR][Cha]R[ξDisc]-NH2; linker 5-8 via oXylylene; N-terminus assumed) |  |  | 10.7 ± 0.7 |
| CN[C@@H](C)C(=O)N[C@H](C(=O)N1C[C@H](Cc2ccccc2)C[C@H]1C(=O)N[C@@H](Cc1ccc(-c2ccccc2)cc1)C(=O)NCCSCc1ccc(CSCCNC(=O)[C@H](Cc2ccc(-c3ccccc3)cc2)NC(=O)[C@@H]2C[C@@H](Cc3ccccc3)CN2C(=O)[C@@H](NC(=O)[C@H](C)NC)C(C)(C)C)cc1)C(C)(C)C [SMAC17-2X, (N^MeAla-Tle-(4-Bzl)Pro-Bip-NHCH2CH2S)2—(CH2)2Ph] | 1.7 ± 0.4 |  |  |
| CN[C@@H](C)C(=O)N[C@H](C(=O)N1C[C@H](Cc2ccccc2)C[C@H]1C(=O)N[C@@H](CC1CCCCC1)C(=O)NCCS)C(C)(C)C [SMAC12, N^MeAla-Tle-(4-Bzl)Pro-Cha-NHCH2CH2SH] (H-[NMeA][Tle][Pro(4R-Bn)][Cha]-Cysteamide; N-terminus assumed) | 21.2 ± 2.4 | 10.1 ± 2.6 |  |
| CN[C@@H](C)C(=O)N[C@H](C(=O)N1C[C@H](Cc2ccccc2)C[C@H]1C(=O)N[C@@H](Cc1cccc2ccccc12)C(=O)NCCS)C(C)(C)C [SMAC14, N^MeAla-Tle-(4-Bzl)Pro-^1Na1-NHCH2CH2SH] (H-[NMeA][Tle][Pro(4R-Bn)][1Nal]-Cysteamide; N-terminus assumed) | 13.4 ± 0.5 | 4.5 ± 1.1 |  |
| CN[C@@H](C)C(=O)N[C@H](C(=O)N1C[C@H](Cc2ccccc2)C[C@H]1C(=O)N1Cc2ccccc2C1C(=O)NCCS)C(C)(C)C (stereo partly drawn) [SMAC4, N^MeAla-Tle-(4-Bzl)Pro-Disc-NHCH2CH2SH] (H-[NMeA][Tle][Pro(4R-Bn)][ξDisc]-Cysteamide; N-terminus assumed) | 41.6 ± 3.7 | 47.1 ± 15.9 |  |
| CN[C@@H](C)C(=O)N[C@H](C(=O)N1C[C@H](Cc2ccccc2)C[C@H]1C(=O)N[C@H](CC(=O)NCCS)Cc1ccccc1)C(C)(C)C [SMAC10, N^MeAla-Tle-(4-Bzl)Pro-bhPhe-NHCH2CH2SH] | 23.9 ± 2.1 | 29.7 ± 3.3 |  |
| CC(C)C[C@H](NC(=O)[C@H](CCCNC(=N)N)NC(=O)[C@H](CS)NC(=O)[C@H](Cc1c[nH]c2ccccc12)NC(=O)[C@H](Cc1ccc(O)cc1)NC(=O)[C@H](CCCNC(=N)N)NC(=O)[C@H](CS)NC(=O)[C@H](Cc1ccccc1)NC(=O)[C@H](CCCNC(=N)N)NC(=O)c1cccnc1)C(=O)N[C@@H](CCCNC(=N)N)C(=O)N1CCC[C@H]1C(N)=O [ArB15F/GNicr] (Nicotinoyl-RFCRYWCRLRP-NH2) |  |  | 64.5 |
| CN[C@@H](C)C(=O)N[C@H](C(=O)N1C[C@H](Cc2ccccc2)C[C@H]1C(=O)N[C@@H](Cc1ccc(-c2ccccc2)cc1)C(=O)NCCS)C(C)(C)C [SMAC17, N^MeAla-Tle-(4-Bzl)Pro-Bip-NHCH2CH2SH] (H-[NMeA][Tle][Pro(4R-Bn)][Bip]-Cysteamide; N-terminus assumed) | 5.7 ± 0.9 | 10.6 ± 0.9 |  |
| CN[C@@H](C)C(=O)N[C@H](C(=O)N1C[C@H](Cc2ccccc2)C[C@H]1C(=O)N[C@@H](Cc1ccc2ccccc2c1)C(=O)NCCS)C(C)(C)C [SMAC15, N^MeAla-Tle-(4-Bzl)Pro-^2Nal-NHCH2CH2SH] (H-[NMeA][Tle][Pro(4R-Bn)][2Nal]-Cysteamide; N-terminus assumed) | 10.5 ± 0.6 | 9.4 ± 0.5 |  |
| CN[C@@H](C)C(=O)N[C@H](C(=O)N1C[C@H](Cc2ccccc2)C[C@H]1C(=O)N[C@@H](Cc1ccccc1)C(=O)NCCS)C(C)(C)C [SMAC8, N^MeAla-Tle-(4-Bzl)Pro-Phe-NHCH2CH2SH] | 33.3 ± 1.5 | 34.3 ± 6.7 |  |
| CN[C@@H](C)C(=O)N[C@H](C(=O)N1C[C@H](Cc2ccccc2)C[C@H]1C(=O)NC(CC(=O)NCCS)c1cccc2ccccc12)C(C)(C)C (stereo partly drawn) [SMAC13, N^MeAla-Tle-(4-Bzl)Pro-bh^1NalGly-NHCH2CH2SH] | 12.3 ± 0.5 | 21.7 ± 1.3 |  |
| CN[C@@H](C)C(=O)N[C@H](C(=O)N1C[C@H](Cc2ccccc2)C[C@H]1C(=O)N[C@@H](Cc1c2ccccc2cc2ccccc12)C(=O)NCCS)C(C)(C)C [SMAC18, N^MeAla-Tle-(4-Bzl)Pro-Ant-NHCH2CH2SH] (H-[NMeA][Tle][Pro(4R-Bn)][Ala(9-anthryl)]-Cysteamide) |  | 17.3 ± 1 |  |
| CN[C@@H](C)C(=O)N[C@H](C(=O)N1C[C@H](Cc2ccccc2)C[C@H]1C(=O)N[C@@H](Cc1cccc2ccccc12)C(=O)NCCSCc1ccc(CSCCNC(=O)[C@H](Cc2cccc3ccccc23)NC(=O)[C@@H]2C[C@@H](Cc3ccccc3)CN2C(=O)[C@@H](NC(=O)[C@H](C)NC)C(C)(C)C)cc1)C(C)(C)C [SMAC14-2X, (N^MeAla-Tle-(4-Bzl)Pro-^1Nal-NHCH2CH2S)2—(CH2)2Ph] | 3.5 ± 1.6 |  |  |
| CN[C@@H](C)C(=O)N[C@H](C(=O)N1C[C@H](Cc2ccccc2)C[C@H]1C(=O)N[C@@H](Cc1c[nH]c2ccccc12)C(=O)NCCS)C(C)(C)C [SMAC19, N^MeAla-Tle-(4-Bzl)Pro-Trp-NHCH2CH2SH] (H-[NMeA][Tle][Pro(4R-Bn)]W-Cysteamide; N-terminus assumed) | 27.6 ± 1.8 | 36.7 ± 3.2 |  |
| CN[C@@H](C)C(=O)N[C@H](C(=O)N1C[C@H](Cc2ccccc2)C[C@H]1C(=O)N[C@H](C(=O)NCCS)c1ccccc1)C(C)(C)C [SMAC1, N^MeAla-Tle-(4-Bzl)Pro-Phg-NHCH2CH2SH] (H-[NMeA][Tle][Pro(4R-Bn)][Phg]-Cysteamide; N-terminus assumed) | 31.2 ± 1.4 | 17.2 ± 6.4 |  |
| CN[C@@H](C)C(=O)N[C@H](C(=O)N1C[C@H](Cc2ccccc2)C[C@H]1C(=O)N[C@H](C(=O)NCCS)C(c1ccccc1)c1ccccc1)C(C)(C)C [SMAC16, N^MeAla-Tle-(4-Bzl)Pro-Dpa-NHCH2CH2SH] (H-[NMeA][Tle][Pro(4R-Bn)][Dip]-Cysteamide; N-terminus assumed) | 11.3 ± 1.8 | 9.4 ± 0.6 |  |
| CN[C@@H](C)C(=O)N[C@H](C(=O)N1C[C@H](Cc2ccccc2)C[C@H]1C(=O)N(C)[C@H](C(=O)NCCS)c1ccccc1)C(C)(C)C [SMAC2, N^MeAla-Tle-(4-Bzl)Pro-N^MePhg-NHCH2CH2SH] (H-[NMeA][Tle][Pro(4R-Bn)][NMePhg]-Cysteamide; N-terminus assumed) | 43.6 ± 1.6 | 23.8 ± 4.5 |  |
| CN[C@@H](C)C(=O)N[C@H](C(=O)N1C[C@H](Cc2ccccc2)C[C@H]1C(=O)N[C@@H](Cc1c(F)c(F)c(F)c(F)c1F)C(=O)NCCS)C(C)(C)C [SMAC9, N^MeAla-Tle-(4-Bzl)Pro-PhF-NHCH2CH2SH] | 19.8 ± 3 | 27 ± 3.2 |  |

— patent publication US9556229B2, “Modification of peptides using a bis(thioether)arylbridge approach” (priority 2012, dated 2017)
